Measured values taken from patent US20140162876A1, “Fungicidal substituted 1--1H-[1,2,4]triazole compounds” (BASF SE, priority 2011, published 2014).

Tests used:
Phakopsora pachyrhizi = assay: G4 Protective control of soy bean rust on soy beans caused by Phakopsora pachyrhizi (Phakpa P2), green house; type: in vivo; conditions: soy bean sprayed 2 days before inoculation, % diseased leaf area, untreated control 90
Septoria tritici [1] = assay: G2 Curative control of leaf blotch on wheat caused by Septoria tritici (Septtr K7), green house; type: in vivo; conditions: wheat sprayed 7 days after inoculation (curative), % diseased leaf area, untreated control 80
Description: The spray solutions were prepared in several steps: The stock solution were prepared: a mixture of acetone and/or dimethylsulfoxide and the wetting agent/emulsifier Wettol, which is based on ethoxylated alkylphenoles, in a relation (volume) solvent-emulsifier of 99 to 1 was added to 25 mg of the compound to give a total of 5 ml. Water was then added to total volume of 100 ml. This stock solution was diluted with the described solvent-emulsifier-water mixture to the given concentration. G2 Curative Control of Leaf Blotch on Wheat Caused by Septoria tritici (Septtr K7) Leaves of pot-grown wheat seedling were inoculated with an aqueous spore suspension of Septoria tritici. Then the trial plants were immediately transferred to a humid chamber at 18-22° C. and a relative humidity close to 100%. […] Seven days after inoculation the plants were sprayed to run-off with an aqueous suspension of the active compound or their mixture, prepared as described. […] After 4 weeks the extent of fungal attack on the leaves was visually assessed as % diseased leaf area.

Botrytis cinerea = assay: M2 Activity against the grey mold Botrytis cinerea in the microtiterplate test (Botrci); type: cell-based; conditions: microtiter plate, 7 days after inoculation
Pyricularia oryzae = type: cell-based; conditions: microtiter plate, 7 days after inoculation
Septoria tritici [2] = assay: M4 Activity against leaf blotch on wheat caused by Septoria tritici (Septtr), microtest; type: cell-based; conditions: microtiter plate, 7 days after inoculation
Alternaria solani = assay: M3 Activity against early blight caused by Alternaria solani (Alteso), microtest; type: cell-based; conditions: microtiter plate, 7 days after inoculation
Septoria tritici [3] = assay: G1 Preventative control of leaf blotch on wheat caused by Septoria tritici (Septtr P7), green house; type: in vivo; conditions: wheat sprayed 7 days before inoculation, % diseased leaf area, untreated control 80
Description: The spray solutions were prepared in several steps: The stock solution were prepared: a mixture of acetone and/or dimethylsulfoxide and the wetting agent/emulsifier Wettol, which is based on ethoxylated alkylphenoles, in a relation (volume) solvent-emulsifier of 99 to 1 was added to 25 mg of the compound to give a total of 5 ml. Water was then added to total volume of 100 ml. This stock solution was diluted with the described solvent-emulsifier-water mixture to the given concentration. G1 Preventative Control of Leaf Blotch on Wheat Caused by Septoria tritici (Septtr P7) Leaves of pot-grown wheat seedling were sprayed to run-off with an aqueous suspension of the active compound or their mixture, prepared as described. The plants were allowed to air-dry. Seven days later the plants were inoculated with an aqueous spore suspension of Septoria tritici. Then the trial plants were immediately transferred to a humid chamber at 18-22° C. and a relative humidity close to 100%. […] After 4 weeks the extent of fungal attack on the leaves was visually assessed as % diseased leaf area.

Structure (SMILES)	Disease (%) at 250 ppm Phakpa P2 (Phakopsora pachyrhizi) [%]	Disease (%) at 250 ppm Septtr K7 (Septoria tritici [1]) [%]	Disease (%) at 2 ppm Botrci (Botrytis cinerea) [%]	Disease (%) at 0.125 ppm Pyrior (Pyricularia oryzae) [%]	Disease (%) at 0.032 ppm Septtr (Septoria tritici [2]) [%]	Disease (%) at 0.125 ppm Alteso (Alternaria solani) [%]	Disease (%) at 16 ppm Phakpa P2 (Phakopsora pachyrhizi) [%]	Disease (%) at 16 ppm Septtr P7 (Septoria tritici [3]) [%]
CCOC(Cn1cncn1)c1ccc(Oc2ccc(Cl)cc2)cc1Cl (stereo not shown) [drawing 21]	30	40	–	–	–	–	–	–
CCOC(Cn1cncn1)c1ccc(Oc2ccc(Cl)cc2)cc1Cl (stereo not shown) [drawing 24]	–	–	24	84	31	44	–	–
CCC(Cn1cncn1)(OC)c1ccc(Oc2ccc(Cl)cc2)cc1Cl (stereo not shown)	–	–	–	–	–	–	80	–
CCOC(C)(Cn1cncn1)c1ccc(Oc2ccc(Cl)cc2)cc1Cl (stereo not shown) [Compound I-1]	5	10	0	50	5	25	–	40
CCOC(CC)(Cn1cncn1)c1ccc(Oc2ccc(Cl)cc2)cc1Cl (stereo not shown) [Compound I-2, 1-[2-[2-chloro-4-(4-chlorophenoxy)phenyl]-2-ethoxy-butyl]-1,2,4-triazole]	–	–	–	–	–	–	40	–
COC(C)(Cn1cncn1)c1ccc(Oc2ccc(Cl)cc2)cc1Cl (stereo not shown)	–	–	–	–	–	–	–	80
